pIC50: −log10 of the molar value.
Key:
[1] = Dedicated pharmacokinetic study, single oral dose; format: in vivo, C57BL/6 mice; settings: mice, route and dose not given; for half-life: C57BL/6, mouse, plasma, intravenous, 0.4 mg/kg
[2] = target: T1, CYP3A4 (Homo sapiens, UniProt P08684); experiment: CYP inhibition assay, CYP3A4; format: in vitro ADME; settings: probe Midazolam (5 μM), human liver microsomes
T1 construct: using human liver microsomes; from tissue; host or cells: human liver microsomes
Method: (§1) In vitro CYP (cytochrome P450) enzyme inhibition studies predict a drug candidate's predisposition to inhibit cytochrome P450 enzymes. The cytochrome P450 (CYP) inhibition assay was run against CYP2D6 and CYP3A4 isoforms using human liver microsomes. For CYP2D6, the probe substrates was Bufaralol (10 μM) and the positive control was Quinidine (2.5 μM). Midazolam (5 μM) was chosen as the probe substrate for CYP3A4 and Ketocanazole (2.5 μM) was used as the positive control inhibitor. To increase the throughput of the assay, one concentration (10 μM) was tested. For analysis via LC-MS, internal standards of 1-OH-Bufuralol-maleate-[D9] for CYP2D6 and 1′-OH-Midazolam-13C3 for CYP3A4 were used.

[3] = target: T2, binding between PCSK9 and the LDL receptor (Homo sapiens, UniProt Q8NBP7); experiment: In vitro PCSK9-LDLR binding assay (CircuLex kit)
T2 construct: purchased CircuLex
Method: Compounds were assayed for their ability to inhibit the binding between PCSK9 and the LDL receptor using a CircuLex PCSK9-LDLR in vitro binding assay kit. The procedure employed the reagents and buffers included in the kit as follows. 88 μL of 1× reaction buffer was placed into each well. 5 μL of test compound in 20% DMSO was added into each well. 10 mM solutions of test compounds in DMSO were diluted by 3-fold series to give 6-point concentration curves. The compounds were then diluted 20-fold with the reaction buffer. To each well was then added 7 μL of His-tagged PCSK9 wild type solution (1000 ng/mL). The plate was then covered with a plate sealer and incubated at room temperature for 3 hours, shaking at 300 rpm on an orbital microplate shaker. The test solutions were washed 4 times with 350 μL wash buffer. One 100 μL of biotinylated anti-His-tag monoclonal antibody was added to each well. The plate was covered with a plate sealer, and incubated at room temperature for 1 h, shaking at 300 rpm. The test solutions were washed 4 times with 350 μL wash buffer. […] of HRP-conjugated streptavidin was added to each well. The plate was covered with a plate sealer, and incubated at room temperature for 20 min, shaking at 300 rpm. The test solutions were washed 4 times with 350 μL wash buffer. 100 μL of substrate reagent was added into each well. The plate was covered with a plate sealer, and incubated at room temperature for 15 min, shaking at 300 rpm. Finally, 100 μL of stop solution was added to each well in the same order as the previously added substrate reagent.
The results of the binding assay are shown in FIG. 3, reported as IC50 (μM).

[4] = target: T3, hERG channel (Homo sapiens, UniProt Q12809); experiment: hERG assay (automated QPatch); format: cell-based; settings: CHO cells expressing hERG channels
T3 construct: expressed in transfected cells; host or cells: CHO
Method: A CHO cell line stably transfected with hERG cDNA and expressing hERG channels was used. Cells used in the QPatch all met the following criteria: under microscopy examination, the majority of cells in suspension were single and isolated, their viability was greater than 95%, cell density ranged between 3-8×10^6 cells/mL in the final suspension before applying to the QPatch stir chamber. Cells were used within 4 hours of harvesting. Whole-cell recordings were performed using automated QPatch (Sophion Bioscience, Denmark). The cells were voltage clamped at a holding potential of −80 mV. The hERG current was activated by depolarising at +20 mV for 5 seconds, after which the current was taken back to −50 mV for 2.5 seconds to remove the inactivation and observe the outward tail current. The maximum amount of tail current was used to determine hERG current amplitude.

[5] = Cassette pharmacokinetic study, intravenous; format: in vivo, C57BL/6 mice; settings: mice, route not given (IV study 0.4 mg/kg); for Vd: male, C57BL/6, mouse, plasma, read-out: VSS
Method: Cassette dosing is a technique primarily used in drug discovery efforts in non-clinical studies to collect pharmacokinetic data from multiple drug candidates in a single experiment.
C57BL/6 mice (21-22 g, 6-8 weeks, male, purchased from Jihui Laboratory Animal Co. LTD) were allowed access to food and water ad libitum throughout the in-life phase of the study. Mice were dosed intravenously (IV) with a cassette of 0.4 mg/kg of test compounds in 5% DMAC, 5% Solutol HS15 and 90% saline. At designated time points, the animals were restrained manually, and ˜110 μL of blood/time point was collected into pre-cooled EDTA-K2 tubes via the facial vein. Blood samples were centrifuged at 4° C. (2000 g, 5 min) to obtain plasma within 15 min after sample collection. Plasma samples were stored at approximately −70° C. until analysis. Samples were assayed for their levels of test compounds by LC/MS/MS using a Triple Quadruple (6500+) system operating in a positive electrospray ionisation mode.
The PK parameters of half-life (T1/2) and area under the curve (AUC) of the compounds were assessed following a single intravenous (IV) injection (0.4 mg/kg) in mice (male, C57BL/6).

[6] = tested on: Caco-2 cells; experiment: Caco2 assay; format: in vitro ADME, human; settings: 10 μM, 90 min
Method: Caco-2 cells are a human colon epithelial cancer cell line used as a model of human intestinal absorption of drugs and other compounds. The compounds were assessed for their oral suitability in this assay, as compounds with good oral bioavailability likely evade efflux by pumps. The permeability coefficient (Papp) denotes the permeability of the drug through a monolayer of cells. Transport is assessed in both directions (apical to basolateral (A-B) and basolateral to apical (B-A)) across the cell monolayer to enable an efflux ratio to be determined which provides an indicator as to whether a compound undergoes active efflux.
Caco-2 cells were removed from an incubator and the cell monolayer was washed with HBSS buffer before the Transepithelial/transendothelial electrical resistance (TEER) was measured at room temperature. The transport experiment was started by adding 10 μM solution of test compounds in HBSS buffer containing luciferase yellow to the apical side. A sample from the apical chamber was taken at t=0 min. The volumes of the apical and basal sides were 400 μL and 800 μL respectively. The apical and basolateral plates were incubated at 37° C. for 90 min. After 90 min, the apical plate was separated from the basolateral plate and an aliquot from the basolateral side was transferred to an opaque plate for the determination of lucifer yellow concentration at t=90 min. The luciferase yellow concentration of each sample was measured by fluorimetry using excitation and emission wavelengths of 485 nm and 535 nm, respectively. Samples from the donor and receiver chambers were diluted with 0.4% DMSO in HBSS then mixed with ACN and either osalmid or imipramine, which were used as an IS in preparation for analysis by LC-MS/MS. Samples were then assayed for their levels of test compounds using an UPLC-MS/MS-29(API6500+) or an LC-MS/MS-014(API4000) instrument operating in a positive electrospray ionisation mode.

[7] = target: T4, CYP2D6 (Homo sapiens, UniProt P10635); experiment: CYP inhibition assay, CYP2D6; format: in vitro ADME; settings: probe Bufaralol (10 μM), human liver microsomes
T4 construct: using human liver microsomes; from tissue; host or cells: human liver microsomes
Method: as §1

T4 sequence (P10635 whole entry): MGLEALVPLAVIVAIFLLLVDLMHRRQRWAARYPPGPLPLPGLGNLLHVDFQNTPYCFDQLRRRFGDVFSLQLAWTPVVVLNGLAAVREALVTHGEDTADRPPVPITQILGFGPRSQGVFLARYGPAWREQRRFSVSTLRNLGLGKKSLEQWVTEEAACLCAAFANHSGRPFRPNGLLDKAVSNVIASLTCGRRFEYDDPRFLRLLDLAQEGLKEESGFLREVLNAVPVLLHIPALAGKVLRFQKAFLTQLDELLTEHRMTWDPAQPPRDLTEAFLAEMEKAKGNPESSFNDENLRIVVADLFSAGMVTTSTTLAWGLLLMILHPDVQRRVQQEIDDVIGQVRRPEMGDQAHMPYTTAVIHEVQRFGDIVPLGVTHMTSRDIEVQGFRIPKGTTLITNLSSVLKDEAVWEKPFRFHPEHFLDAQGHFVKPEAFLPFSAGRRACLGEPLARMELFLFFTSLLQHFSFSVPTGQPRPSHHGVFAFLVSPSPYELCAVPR
T3 sequence (Q12809 whole entry): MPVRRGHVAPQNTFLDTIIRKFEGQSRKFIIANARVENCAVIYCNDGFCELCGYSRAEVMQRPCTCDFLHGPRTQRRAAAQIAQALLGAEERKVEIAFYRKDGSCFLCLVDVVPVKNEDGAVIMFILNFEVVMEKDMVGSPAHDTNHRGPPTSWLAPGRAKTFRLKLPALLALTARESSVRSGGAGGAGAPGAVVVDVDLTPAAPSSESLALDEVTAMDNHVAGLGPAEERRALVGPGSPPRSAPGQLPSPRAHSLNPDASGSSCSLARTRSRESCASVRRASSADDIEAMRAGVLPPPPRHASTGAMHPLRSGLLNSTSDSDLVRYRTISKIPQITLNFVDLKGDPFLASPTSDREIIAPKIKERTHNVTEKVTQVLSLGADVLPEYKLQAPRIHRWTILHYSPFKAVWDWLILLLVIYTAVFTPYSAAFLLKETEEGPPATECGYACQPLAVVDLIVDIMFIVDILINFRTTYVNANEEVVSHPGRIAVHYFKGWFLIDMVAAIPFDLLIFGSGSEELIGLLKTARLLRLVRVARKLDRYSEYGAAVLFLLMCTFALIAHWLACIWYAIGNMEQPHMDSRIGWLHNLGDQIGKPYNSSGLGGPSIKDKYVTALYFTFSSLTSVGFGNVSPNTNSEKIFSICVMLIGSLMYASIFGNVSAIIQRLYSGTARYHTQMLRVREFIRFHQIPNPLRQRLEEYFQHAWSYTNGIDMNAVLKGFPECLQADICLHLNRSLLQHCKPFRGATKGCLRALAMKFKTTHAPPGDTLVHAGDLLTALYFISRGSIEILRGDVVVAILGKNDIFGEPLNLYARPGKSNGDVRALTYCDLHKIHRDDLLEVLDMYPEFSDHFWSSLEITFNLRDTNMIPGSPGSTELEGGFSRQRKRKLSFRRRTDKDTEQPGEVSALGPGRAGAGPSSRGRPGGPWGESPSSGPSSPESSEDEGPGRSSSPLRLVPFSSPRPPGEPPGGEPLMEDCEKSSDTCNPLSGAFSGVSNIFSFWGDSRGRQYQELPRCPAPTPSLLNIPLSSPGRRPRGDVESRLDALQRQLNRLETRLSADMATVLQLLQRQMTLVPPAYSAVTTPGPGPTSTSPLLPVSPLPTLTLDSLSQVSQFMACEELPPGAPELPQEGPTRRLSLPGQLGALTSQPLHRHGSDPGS
T1 sequence (P08684 whole entry): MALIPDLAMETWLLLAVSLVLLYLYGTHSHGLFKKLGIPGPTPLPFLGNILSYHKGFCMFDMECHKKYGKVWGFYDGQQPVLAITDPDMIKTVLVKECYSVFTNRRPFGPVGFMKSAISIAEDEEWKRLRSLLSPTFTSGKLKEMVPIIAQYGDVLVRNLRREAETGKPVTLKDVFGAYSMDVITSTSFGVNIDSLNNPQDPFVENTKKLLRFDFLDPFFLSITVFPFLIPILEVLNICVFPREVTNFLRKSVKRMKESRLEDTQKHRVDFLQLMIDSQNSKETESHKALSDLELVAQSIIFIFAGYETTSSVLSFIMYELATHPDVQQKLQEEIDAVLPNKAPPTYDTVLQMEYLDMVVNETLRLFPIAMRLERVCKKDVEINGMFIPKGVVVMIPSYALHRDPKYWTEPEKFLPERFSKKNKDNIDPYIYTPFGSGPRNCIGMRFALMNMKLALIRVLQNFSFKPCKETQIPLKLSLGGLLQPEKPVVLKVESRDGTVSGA
T2 sequence (Q8NBP7 153-692): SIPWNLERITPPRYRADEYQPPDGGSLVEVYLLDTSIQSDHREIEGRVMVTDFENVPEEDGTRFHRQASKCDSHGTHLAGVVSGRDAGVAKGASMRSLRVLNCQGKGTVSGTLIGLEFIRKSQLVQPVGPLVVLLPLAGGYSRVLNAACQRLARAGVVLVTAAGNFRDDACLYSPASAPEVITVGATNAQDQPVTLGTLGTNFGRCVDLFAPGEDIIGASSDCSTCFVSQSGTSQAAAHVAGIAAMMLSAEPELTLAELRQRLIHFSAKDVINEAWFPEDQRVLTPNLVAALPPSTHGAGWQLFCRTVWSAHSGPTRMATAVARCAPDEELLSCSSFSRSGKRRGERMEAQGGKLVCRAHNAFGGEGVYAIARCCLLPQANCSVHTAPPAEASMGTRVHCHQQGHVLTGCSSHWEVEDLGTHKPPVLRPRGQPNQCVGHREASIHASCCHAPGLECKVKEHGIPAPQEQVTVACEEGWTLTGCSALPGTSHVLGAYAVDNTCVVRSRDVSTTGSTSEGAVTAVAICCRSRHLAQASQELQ
T2 sequence (Q8NBP7 31-152 partner limits assumed): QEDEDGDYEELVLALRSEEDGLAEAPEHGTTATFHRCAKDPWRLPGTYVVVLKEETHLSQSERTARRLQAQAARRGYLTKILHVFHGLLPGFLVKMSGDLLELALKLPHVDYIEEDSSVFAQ

SMILES | half-life [1] [h] | inhibition at 10 µM [2] [%] | pIC50 [3] | pIC50 [4] | Vd [5] [L/kg] | bioavailability indicated by the in vitro Caco2 study [6] | inhibition at 10 µM [7] [%] | T1/2 [1] [h] | VSS [5] [L/kg]
Cc1cnc(C(=O)Nc2cc(CN3CCC(F)(F)[C@H](N)C3)cc(-c3ccc(C(F)(F)F)nc3)c2)cc1-c1ccccc1 [compound 131] | 19 | 0.68 | 6.26 | 4.03 | 3.25 | good bioavailability | 11.4 | – | –
Cc1ccc(-c2cc(CN3CCC(F)(F)[C@H](N)C3)cc(NC(=O)c3cc(-c4ccccc4)ccn3)c2)cn1 [Compound 122] | 11.3 | -15.4 | 6.55 | 4.45 | 1.29 | good bioavailability | 25.6 | – | –
Cc1cn(-c2cc(CN3CCC[C@H](N)C3)cc(NC(=O)c3cc(-c4ccccc4)ccn3)c2)cn1 [compound 29, (S)—N-(3-((3-aminopiperidin-1-yl)methyl)-5-(4-methyl-1H-imidazol-1-yl)phenyl)-4-phenylpicolinamide] | – | 74 | 6.49 | 5.55 | – | good bioavailability | 69.8 | 6.29 | 14.7

From US20240124428A1, “HETEROCYCLIC INHIBITORS OF PCSK9” (CARDIO THERAPEUTICS PTY LTD, priority 2020, published 2024)
